Tested on: cortex metabolites
Assay: Metabolomic analysis of cortex
Format: in vivo, mice
Details: cortex
Protocol: Metabolomic analyses were conducted at Metabolon (Durham, NC, USA) as described previously. For statistical analyses and data display, any missing values were assumed to be below the limits of detection and imputed with the compound minimum (minimum value imputation). An estimate of the FDR (Q value) was calculated to take into account the multiple comparisons that normally occur in metabolomics-based studies, with Q < 0.05 used as an indication of high confidence in a result. The MetaboAnalyst tool was used to generate heat maps.

Cc1ccc(N(/N=C/c2cccc(OC(F)(F)F)c2)C(=O)C(F)(F)F)c(C)c1 [CAD-31]
mannose-6-phosphate Fold Change (AD+31/AD, p-value 0.9434): 1.05
cytidine 5'-monophospho-N-acetylneuraminic acid Fold Change (AD+31/AD, p-value 0.9957): 1
ergothioneine Fold Change (C+31/C, p-value 0.0002): 0.56
17-methylstearate Fold Change (C+31/C, p-value 0.0006): 0.54
phenol sulfate Fold Change (C+31/C, p-value 0.0029): 0.41
N-delta-acetylornithine Fold Change (C+31/C, p-value 0.0034): 1.51
gamma-glutamylhistidine Fold Change (C+31/C, p-value 0.0046): 0.55
1-palmitoylglycerol (16:0) Fold Change (C+31/C, p-value 0.0049): 0.67
dihomo-linoleate (20:2n6) Fold Change (C+31/C, p-value 0.0052): 0.53
linoleoyl ethanolamide Fold Change (C+31/C, p-value 0.0058): 0.52
arachidate (20:0) Fold Change (C+31/C, p-value 0.0074): 0.59
pyroglutamine* Fold Change (C+31/C, p-value 0.0076): 1.27
adenosine 2'-monophosphate (2'-AMP) Fold Change (C+31/C, p-value 0.0085): 1.49
docosatrienoate (22:3n3) Fold Change (C+31/C, p-value 0.0095): 0.35
stearate (18:0) Fold Change (C+31/C, p-value 0.01): 0.61
nonadecanoate (19:0) Fold Change (C+31/C, p-value 0.0112): 0.63
1-oleoylglycerol (18:1) Fold Change (C+31/C, p-value 0.0125): 0.6
10-nonadecenoate (19:1n9) Fold Change (C+31/C, p-value 0.0132): 0.6
3-hydroxybutyrylcarnitine (2) Fold Change (C+31/C, p-value 0.016): 1.78
adrenate (22:4n6) Fold Change (C+31/C, p-value 0.0161): 0.5
oleate/vaccenate (18:1) Fold Change (C+31/C, p-value 0.0172): 0.59
eicosenoate (20:1) Fold Change (C+31/C, p-value 0.0212): 0.61
lactate Fold Change (C+31/C, p-value 0.0212): 1.26
palmitate (16:0) Fold Change (C+31/C, p-value 0.0241): 0.65
margarate (17:0) Fold Change (C+31/C, p-value 0.0267): 0.61
2-hydroxydecanoate Fold Change (C+31/C, p-value 0.0327): 0.68
1-arachidonylglycerol (20:4) Fold Change (C+31/C, p-value 0.0338): 0.66
3-hydroxybutyrate (BHBA) Fold Change (C+31/C, p-value 0.0349): 1.87
2-palmitoylglycerol (16:0) Fold Change (C+31/C, p-value 0.035): 0.65
succinylcarnitine Fold Change (C+31/C, p-value 0.0357): 0.72
oleoyl-oleoyl-glycerol (18:1/18:1) [2]* Fold Change (C+31/C, p-value 0.0363): 1.12
acetyl CoA Fold Change (C+31/C, p-value 0.0372): 1.87
erucate (22:1n9) Fold Change (C+31/C, p-value 0.0376): 0.64
glycerol 3-phosphate Fold Change (C+31/C, p-value 0.0387): 0.8
docosadienoate (22:2n6) Fold Change (C+31/C, p-value 0.0388): 0.62
acetylcarnitine Fold Change (C+31/C, p-value 0.0422): 1.53
1-docosahexaenoylglycerol (22:6) Fold Change (C+31/C, p-value 0.0423): 0.64
1-stearoyl-GPG (18:0) Fold Change (C+31/C, p-value 0.0449): 0.59
arachidonoyl ethanolamide Fold Change (C+31/C, p-value 0.0462): 0.86
glucosamine-6-phosphate Fold Change (C+31/C, p-value 0.0462): 1.4
glutamate Fold Change (C+31/C, p-value 0.0465): 1.09
tricosenoate (23:1) Fold Change (C+31/C, p-value 0.0476): 0.64
mead acid (20:3n9) Fold Change (C+31/C, p-value 0.0477): 0.6
adenosine 5'-diphosphoribose (ADP-ribose) Fold Change (C+31/C, p-value 0.0695): 1.15
sedoheptulose-7-phosphate Fold Change (C+31/C, p-value 0.0888): 1.15
2-hydroxystearate Fold Change (C+31/C, p-value 0.0897): 0.58
UDP-N-acetylglucosamine/galactosamine Fold Change (C+31/C, p-value 0.0923): 1.08
2-oleoylglycerol (18:1) Fold Change (C+31/C, p-value 0.0938): 0.77
putrescine Fold Change (C+31/C, p-value 0.0994): 1.2
2-methylcitrate/homocitrate Fold Change (C+31/C, p-value 0.1114): 1.09
1-palmitoyl-GPG (16:0)* Fold Change (C+31/C, p-value 0.126): 0.57
mannose-6-phosphate Fold Change (C+31/C, p-value 0.1316): 1.33
glutamate, gamma-methyl ester Fold Change (C+31/C, p-value 0.1579): 1.35
anserine Fold Change (C+31/C, p-value 0.1772): 1.18
gulonate* Fold Change (C+31/C, p-value 0.179): 1.11
glucose 6-phosphate Fold Change (C+31/C, p-value 0.199): 1.27
fructose-6-phosphate Fold Change (C+31/C, p-value 0.2317): 1.26
methylphosphate Fold Change (C+31/C, p-value 0.233): 1.1
1-oleoyl-2-linoleoyl-GPC (18:1/18:2)* Fold Change (C+31/C, p-value 0.2649): 0.92
N-formylmethionine Fold Change (C+31/C, p-value 0.286): 1.07
acetylphosphate Fold Change (C+31/C, p-value 0.2996): 1.11
phosphoethanolamine Fold Change (C+31/C, p-value 0.3099): 1.04
azelate (nonanedioate) Fold Change (C+31/C, p-value 0.3211): 0.81
methionine Fold Change (C+31/C, p-value 0.3291): 1.08
coenzyme A Fold Change (C+31/C, p-value 0.3422): 0.88
arabinose Fold Change (C+31/C, p-value 0.3687): 1.05
1-palmitoyl-2-gamma-linolenoyl-GPC (16:0/18:3n6)* Fold Change (C+31/C, p-value 0.3875): 0.94
3-sulfo-nervonoyl-galactosylceramide (d18:1/24:1) Fold Change (C+31/C, p-value 0.4046): 0.97
N-acetylmethionine Fold Change (C+31/C, p-value 0.4061): 0.96
UDP-galactose Fold Change (C+31/C, p-value 0.4075): 0.86
N-acetylglucosaminylasparagine Fold Change (C+31/C, p-value 0.4104): 0.96
prolylglycine Fold Change (C+31/C, p-value 0.4172): 0.96
1-stearoyl-GPC (18:0) Fold Change (C+31/C, p-value 0.4215): 1.08
N-acetylalanine Fold Change (C+31/C, p-value 0.4319): 1.04
1-oleoyl-2-arachidonoyl-GPI (18:1/20:4) * Fold Change (C+31/C, p-value 0.4368): 1.04
1-(1-enyl-stearoyl)-2-arachidonoyl-GPE (P-18:0/20:4)* Fold Change (C+31/C, p-value 0.4593): 0.98
UDP-glucose Fold Change (C+31/C, p-value 0.4697): 0.92
galactose 1-phosphate Fold Change (C+31/C, p-value 0.4772): 1.14
1-methylimidazoleacetate Fold Change (C+31/C, p-value 0.4871): 1.07
cytidine 5'-monophospho-N-acetylneuraminic acid Fold Change (C+31/C, p-value 0.4904): 0.95
ribose Fold Change (C+31/C, p-value 0.5044): 1.04
glycerate Fold Change (C+31/C, p-value 0.512): 0.86
glycerophosphoethanolamine Fold Change (C+31/C, p-value 0.5491): 1.04
palmitoylcholine Fold Change (C+31/C, p-value 0.5572): 0.92
1-stearoyl-2-oleoyl-GPI (18:0/18:1)* Fold Change (C+31/C, p-value 0.5722): 1.05
sphingomyelin (d18:1/18:1, d18:2/18:0) Fold Change (C+31/C, p-value 0.5944): 1.03
5-methylthioadenosine (MTA) Fold Change (C+31/C, p-value 0.6209): 1.02
6-phosphogluconate Fold Change (C+31/C, p-value 0.6443): 0.95
3-hydroxy-3-methylglutarate Fold Change (C+31/C, p-value 0.6796): 1.02
2'-deoxycytidine Fold Change (C+31/C, p-value 0.6852): 1.04
N-acetylglutamate Fold Change (C+31/C, p-value 0.7525): 0.99
beta-citrylglutamate Fold Change (C+31/C, p-value 0.7663): 1.03
O-methyltyrosine Fold Change (C+31/C, p-value 0.8149): 1.04
N-acetyl-glucosamine 1-phosphate Fold Change (C+31/C, p-value 0.8284): 1.06
1-palmitoyl-2-oleoyl-GPS (16:0/18:1) Fold Change (C+31/C, p-value 0.8378): 1.01
hypoxanthine Fold Change (C+31/C, p-value 0.8444): 1.01
lysine Fold Change (C+31/C, p-value 0.8761): 1
hippurate Fold Change (C+31/C, p-value 0.9003): 1.01
N-acetylneuraminate Fold Change (C+31/C, p-value 0.9027): 1.01
1-palmitoyl-2-palmitoleoyl-GPC (16:0/16:1)* Fold Change (C+31/C, p-value 0.9106): 1
glycerophosphoglycerol Fold Change (C+31/C, p-value 0.9156): 1
deoxycarnitine Fold Change (C+31/C, p-value 0.9284): 1.02
mannose Fold Change (C+31/C, p-value 0.9846): 0.96

From publication PMC5513091, “A novel Alzheimer’s disease drug candidate targeting inflammation and fatty acid metabolism” (Alzheimer's Research & Therapy, 2017)
